Data on 25 molecules can be found in ChEMBL document CHEMBL1201862, “PubChem BioAssay data set” (2004).

Each structure is given as a SMILES string. Active and inactive are the calls of the source. Where only a bound is given, the exact number is not on record here.

In assay [1] the target is T1, RNA-binding protein pos-1 (Caenorhabditis elegans, UniProt G5EF15).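 Also: purified POS-1 fused to maltose binding protein made in E. coli; potency of compounds blocking POS-1 binding to fluorescent RNA.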
T1 sequence (G5EF15 whole entry): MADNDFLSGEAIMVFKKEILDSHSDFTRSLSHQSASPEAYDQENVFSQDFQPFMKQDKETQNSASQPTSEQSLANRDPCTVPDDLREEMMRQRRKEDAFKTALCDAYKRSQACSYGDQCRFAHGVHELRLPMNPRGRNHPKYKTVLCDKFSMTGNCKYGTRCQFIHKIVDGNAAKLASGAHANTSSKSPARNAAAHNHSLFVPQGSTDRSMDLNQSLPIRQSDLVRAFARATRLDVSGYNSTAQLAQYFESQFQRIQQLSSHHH
Put plainly: inhibitors of POS-1/mex-3 RNA binding, dose response, biochemical, fluorescence polarization (AID 1964). (In general: In fluorescence polarisation assays a small probe gives low polarisation when free and higher when bound to something large.)

For assay [2], the target named is T2, Zinc finger protein mex-5 (Caenorhabditis elegans, UniProt Q9XUB2).
T2 sequence (Q9XUB2 whole entry): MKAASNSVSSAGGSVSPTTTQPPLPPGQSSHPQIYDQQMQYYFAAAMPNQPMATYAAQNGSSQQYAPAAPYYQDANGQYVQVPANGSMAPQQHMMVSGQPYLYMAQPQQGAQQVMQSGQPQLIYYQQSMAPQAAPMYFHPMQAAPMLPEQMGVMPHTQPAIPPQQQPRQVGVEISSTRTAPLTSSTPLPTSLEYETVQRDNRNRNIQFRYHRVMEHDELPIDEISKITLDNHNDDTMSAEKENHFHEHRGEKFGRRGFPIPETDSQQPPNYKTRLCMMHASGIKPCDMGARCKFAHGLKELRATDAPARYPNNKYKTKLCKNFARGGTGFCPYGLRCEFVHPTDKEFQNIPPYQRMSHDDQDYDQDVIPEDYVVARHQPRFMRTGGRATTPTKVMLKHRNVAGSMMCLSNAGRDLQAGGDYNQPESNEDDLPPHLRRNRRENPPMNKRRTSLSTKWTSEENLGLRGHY
In words: MEX-5/TCR-2 RNA interaction inhibitors, dose response, biochemical, C. elegans, fluorescence polarization (AID 1960).

The target in assay [3] is Cytochrome P450 2C19 (Homo sapiens, UniProt P33261). Put plainly: Cytochrome panel assay with activity outcomes. Panel member name: p450-cyp2c19 Compounds with AC50 equal or less than 10 uM are considered active. In kind it is functional. The note with it: read-out: AC50.
Chain of Cytochrome P450 2C19 (P33261 whole entry): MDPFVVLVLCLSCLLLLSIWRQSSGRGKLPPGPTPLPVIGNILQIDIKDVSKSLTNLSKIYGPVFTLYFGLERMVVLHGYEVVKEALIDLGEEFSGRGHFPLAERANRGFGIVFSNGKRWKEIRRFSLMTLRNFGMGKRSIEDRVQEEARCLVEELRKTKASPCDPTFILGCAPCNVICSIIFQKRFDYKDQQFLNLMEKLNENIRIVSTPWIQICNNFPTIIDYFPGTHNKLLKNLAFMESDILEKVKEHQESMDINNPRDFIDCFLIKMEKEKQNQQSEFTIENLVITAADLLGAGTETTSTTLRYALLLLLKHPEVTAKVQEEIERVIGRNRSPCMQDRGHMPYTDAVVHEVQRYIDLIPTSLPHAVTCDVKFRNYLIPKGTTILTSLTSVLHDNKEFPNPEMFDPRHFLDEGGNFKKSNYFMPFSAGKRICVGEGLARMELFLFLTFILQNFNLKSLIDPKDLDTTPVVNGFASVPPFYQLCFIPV
The target in assay [4] is Cytochrome P450 2C9 (Homo sapiens, UniProt P11712).
Chain of Cytochrome P450 2C9 (P11712 whole entry): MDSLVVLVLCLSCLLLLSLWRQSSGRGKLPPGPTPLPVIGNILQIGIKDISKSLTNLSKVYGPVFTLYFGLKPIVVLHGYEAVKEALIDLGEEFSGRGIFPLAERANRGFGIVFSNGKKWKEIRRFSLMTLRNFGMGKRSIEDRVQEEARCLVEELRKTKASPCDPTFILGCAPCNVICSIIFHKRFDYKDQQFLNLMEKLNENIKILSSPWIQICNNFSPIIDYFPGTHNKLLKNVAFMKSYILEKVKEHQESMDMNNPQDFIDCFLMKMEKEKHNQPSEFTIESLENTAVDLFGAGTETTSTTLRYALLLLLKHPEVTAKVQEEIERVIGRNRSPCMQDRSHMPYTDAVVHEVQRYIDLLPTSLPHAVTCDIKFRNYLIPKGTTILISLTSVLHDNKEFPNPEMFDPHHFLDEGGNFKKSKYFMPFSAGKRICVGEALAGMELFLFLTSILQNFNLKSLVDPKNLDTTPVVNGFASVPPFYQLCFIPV
In assay [5] the test system is H9c2. In words: cells. It counts as functional, cell-based. The note with it: Rattus norvegicus, H9c2, Myocardium.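 Also: confirmatory concentration-response retest of ultra-high-throughput screening hits for modulation of myocardial damage; cell death induced by hydrogen peroxide oxidative stress; compound pretreatment for 60 min then peroxide exposure for 2 h; potency is for protecting the cells against peroxide damage rather than for killing them.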
Assay [6] has as its target T3, Replicative DNA helicase DnaB (Mycobacterium tuberculosis, UniProt P9WMR3).
T3 sequence (P9WMR3 whole entry): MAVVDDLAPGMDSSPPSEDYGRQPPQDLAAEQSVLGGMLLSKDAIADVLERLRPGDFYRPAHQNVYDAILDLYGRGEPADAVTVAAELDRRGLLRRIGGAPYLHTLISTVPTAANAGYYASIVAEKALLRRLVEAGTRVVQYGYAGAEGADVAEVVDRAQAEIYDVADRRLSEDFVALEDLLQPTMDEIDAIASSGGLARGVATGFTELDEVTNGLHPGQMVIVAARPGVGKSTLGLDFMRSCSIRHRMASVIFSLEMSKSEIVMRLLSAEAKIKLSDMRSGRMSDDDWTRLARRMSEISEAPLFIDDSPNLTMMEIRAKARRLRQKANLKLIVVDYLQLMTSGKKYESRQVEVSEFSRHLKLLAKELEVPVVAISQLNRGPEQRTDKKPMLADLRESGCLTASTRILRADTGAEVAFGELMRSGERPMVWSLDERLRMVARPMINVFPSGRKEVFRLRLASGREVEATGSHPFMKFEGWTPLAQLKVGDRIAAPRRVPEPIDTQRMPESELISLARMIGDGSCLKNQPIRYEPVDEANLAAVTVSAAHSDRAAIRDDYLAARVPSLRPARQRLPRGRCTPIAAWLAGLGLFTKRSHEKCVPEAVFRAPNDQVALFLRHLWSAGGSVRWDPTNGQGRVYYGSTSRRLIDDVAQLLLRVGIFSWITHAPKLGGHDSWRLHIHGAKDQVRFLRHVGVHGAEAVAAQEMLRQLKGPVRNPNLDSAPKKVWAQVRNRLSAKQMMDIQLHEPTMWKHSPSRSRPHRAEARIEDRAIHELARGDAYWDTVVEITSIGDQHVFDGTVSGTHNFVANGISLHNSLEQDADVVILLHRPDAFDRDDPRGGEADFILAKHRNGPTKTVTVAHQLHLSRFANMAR
Put plainly: DnaB intein splicing inhibitors, dose response, biochemical, cell-free fluorescence (AID 449749). It counts as functional.

The target of assay [7] is T4, Protein RecA (Mycobacterium tuberculosis, UniProt P9WHJ3).
T4 sequence (P9WHJ3 whole entry): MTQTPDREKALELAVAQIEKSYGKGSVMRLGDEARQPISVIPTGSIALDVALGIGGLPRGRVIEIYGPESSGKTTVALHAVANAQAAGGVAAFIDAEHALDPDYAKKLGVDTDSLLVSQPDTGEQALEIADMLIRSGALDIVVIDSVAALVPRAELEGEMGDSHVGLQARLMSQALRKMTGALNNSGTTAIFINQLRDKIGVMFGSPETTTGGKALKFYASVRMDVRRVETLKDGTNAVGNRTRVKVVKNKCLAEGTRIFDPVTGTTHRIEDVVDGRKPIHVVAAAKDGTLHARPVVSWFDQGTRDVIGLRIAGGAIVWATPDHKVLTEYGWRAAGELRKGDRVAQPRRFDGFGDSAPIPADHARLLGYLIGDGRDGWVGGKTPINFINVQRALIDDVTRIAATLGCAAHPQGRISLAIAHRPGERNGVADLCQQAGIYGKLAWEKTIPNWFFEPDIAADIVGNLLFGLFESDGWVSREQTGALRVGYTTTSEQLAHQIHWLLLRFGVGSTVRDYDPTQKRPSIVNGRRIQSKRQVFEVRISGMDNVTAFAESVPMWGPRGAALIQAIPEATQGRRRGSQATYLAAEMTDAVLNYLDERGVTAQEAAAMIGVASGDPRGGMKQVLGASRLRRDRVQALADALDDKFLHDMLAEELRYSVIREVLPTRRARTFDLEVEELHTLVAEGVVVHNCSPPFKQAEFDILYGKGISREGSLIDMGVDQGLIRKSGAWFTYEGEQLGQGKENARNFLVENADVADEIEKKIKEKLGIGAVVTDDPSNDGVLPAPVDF
Put plainly: Fluorescence Cell-Free Homogeneous Dose Retest to Identify Inhibitors of RecA-Intein Splicing Activity. [Related pubchem assays (depositor defined):AID2097, AID2223, AID489010, AID492950]. It counts as functional.

A short description of assay [8]: Luminescence Cell-Based Dose Response HTS to Identify Activators of Luciferase Translation or Activity in H4 […] Cells. [Related pubchem assays: 1829 (Project Summary), 1814 (Primary HTS)]. In kind it is functional.
Assay [9] concerns H4. In words: Luminescence Cell-Based Dose Response HTS to Identify Activators of 5'UTR Stem-Loop Driven Prion Protein mRNA Translation in H4 Neuroglioblastoma Cells. [Related pubchem assays: 1829 (Project Summary), 1814 (Primary HTS)]. In kind it is functional. The note with it: Homo sapiens.
Assay [10] has as its target T5, Corticotropin-releasing factor receptor 2/Corticotropin-releasing factor-binding protein (Homo sapiens, UniProt P24387+Q13324).
T5 sequence (Q13324 whole entry): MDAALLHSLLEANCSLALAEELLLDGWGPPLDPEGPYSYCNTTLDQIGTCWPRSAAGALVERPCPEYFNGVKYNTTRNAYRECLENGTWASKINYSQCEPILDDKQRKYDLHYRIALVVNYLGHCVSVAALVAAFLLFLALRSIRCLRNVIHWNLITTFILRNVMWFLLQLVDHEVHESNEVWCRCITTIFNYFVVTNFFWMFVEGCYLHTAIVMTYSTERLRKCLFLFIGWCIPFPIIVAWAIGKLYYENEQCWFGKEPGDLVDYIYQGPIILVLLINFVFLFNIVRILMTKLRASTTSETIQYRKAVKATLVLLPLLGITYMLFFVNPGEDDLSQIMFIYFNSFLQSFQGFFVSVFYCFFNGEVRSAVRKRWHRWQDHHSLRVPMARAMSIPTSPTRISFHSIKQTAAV
T5 sequence (P24387 whole entry): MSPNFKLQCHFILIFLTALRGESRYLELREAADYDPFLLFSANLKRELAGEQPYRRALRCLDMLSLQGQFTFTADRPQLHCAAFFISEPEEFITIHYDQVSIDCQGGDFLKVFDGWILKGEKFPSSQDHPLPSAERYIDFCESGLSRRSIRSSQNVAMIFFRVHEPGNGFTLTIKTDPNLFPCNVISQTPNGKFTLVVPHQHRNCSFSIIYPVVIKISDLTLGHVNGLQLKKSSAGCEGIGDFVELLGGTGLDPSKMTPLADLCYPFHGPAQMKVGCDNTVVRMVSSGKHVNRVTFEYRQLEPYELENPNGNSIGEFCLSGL
In words: activators of CRF receptor 2 with binding protein – uHTS hits, confirmation (AID 602473). In kind it is functional. The note with it: read-out: EC50_Mean.

A word on the AC50: it is the midpoint of the concentration-response curve, whichever way the signal moves. Consider `Fc1ccc2c(c1)C1C=CCC1C(c1cc3c(cc1Br)OCO3)N2` (stereo not given), for which the EC50 in [1] and in assay [2] was > 300 µM (not active) throughout. The AC50 is 0.316 µM (inconclusive) in [3] and 1.78 µM (inconclusive) in assay [4].
Usually IC50 stands for the concentration that gives 50% inhibition. In the case of `O=C(CCc1nc(O)c2ccccc2n1)Nc1ccc(F)c([N+](=O)[O-])c1`, the IC50 in [5] was > 79 µM (inactive).
Turning to `Cc1ccc(-c2nnc(O)c3ccccc23)cc1S(=O)(=O)Nc1ccccc1`, the IC50 in assay [5] was 21.3 µM (active).
In the case of `CN1CC=C2C(C#N)=C(N)C(C#N)(C#N)C(c3ccncc3)C2C1` (stereo not given), the EC50 in assay [1] was 52.9 µM (inconclusive); in assay [2], 7.73 µM (active).
As for `Nc1n[nH]c(Sc2ccc([N+](=O)[O-])cc2[N+](=O)[O-])n1`, the figures for the EC50 in assay [1] and in assay [2] were 85.7 µM (active) and 30.1 µM (active), respectively.
As for `Cc1n[nH]c2c1C(c1c(C)nn(-c3ccccc3)c1C)C(C#N)=C(N)O2` (stereo not given), in assay [6], the AC50 was 18.6 µM (active). Also, in assay [7], the EC50 was 12.5 µM (active).
With `COc1cccc2cc(-c3cc(=O)oc4ccc(OCC(C)=O)cc34)oc12`, in assay [5], the IC50 is > 79 µM (inactive).
Regarding `CCCCn1c(N)c(Br)c(=O)[nH]c1=O`, in [5], the IC50 was > 79 µM (inactive).
Turning to `Cc1n[nH]c(N=Nc2ccc(O)cc2)n1`, the EC50 is > 300 µM (not active) in assay [1] and 4.83 µM (active) in assay [2].
Regarding `CCOC1(OCC)C(c2ccc(Cl)cc2)C(C#N)(C#N)C1(OCC)OCC` (stereo not given), in [6], the AC50 is 148 µM (active). Besides, the EC50 in [7] is > 380 µM (inconclusive).
Taken in the same sequence, the figures for `CC(C)(C)c1cnnn1-c1ccc(C(=O)CCl)cc1` were 4.17 µM (active) and 2.89 µM (active).
For `CCOC(=O)/C(C#N)=C1/SC(C)C(=O)N1c1ccc(Br)cc1` (stereo not given), the AC50 in [6] is 21 µM (active). Besides, the EC50 in assay [7] was 11.1 µM (active).
Regarding `CCCCc1ccc(/C=C2\C(=O)ON=C2c2ccccc2)s1`, the figures for the EC50 in [1] and in assay [2] were 68 µM (active) and 87.7 µM (active), respectively.
Taken in the same sequence, the figures for `CCOC(=O)Cc1nc2ccccc2n(CC#N)c1=O` were > 300 µM (not active) and > 300 µM (not active).
On to `CCOC(=O)[C@]1(C#N)[C@@H]2C=CC(C(C)=O)=CN2[C@@H](C(N)=O)[C@@H]1c1ccsc1`, for which the figures for the EC50 in [1] and in assay [2] were 2.5 µM (active) and 12.3 µM (active), respectively.
For the molecule `Cc1ccc(N(CC(=O)Nc2ccc(-c3nc4ccc(C)cc4s3)cc2)S(C)(=O)=O)cc1`, the EC50 in [8] was 1.19 µM (active); in assay [9], > 120 µM (not active).
For the molecule `Cc1nc(N2CCN(Cc3ccccc3)CC2)c(C#N)c2c1COC(C)(C)C2`, the EC50 in assay [1] is 94.5 µM (active); in assay [2] it was 108 µM (active).
Take `NS(=O)(=O)c1ccc(N/C=C2/C(=O)N(c3nccs3)C(=O)c3ccccc32)cc1`: in [5], the IC50 was > 79 µM (inactive).
Still for that read-out and setting: under `O=C(NCc1ccc2c(c1)OCO2)c1nnc(O)c2ccccc12` stands > 79 µM (inactive); under `CCOC(=O)C1CCN(c2cc3c(cc2NC(=O)c2ccc(F)cc2)n(C)c(=O)n3C)CC1`, 16.7 µM (active).
Turning to `Cc1ccc(C(=O)C2C(c3ccc(-c4ccccc4[N+](=O)[O-])o3)NC(=O)NC2(O)C(F)(F)F)cc1` (stereo not given), the AC50 in [6] was 5.13 µM (active). The EC50 in assay [7] is 11.6 µM (active).
As for `C/C(=N\NC(=O)c1nnn(-c2nonc2N)c1CSc1ccc(C)cc1)c1cccnc1`, in assay [5], the IC50 is > 79 µM (inactive).
For `COc1ccc(OC)c(/C=c2\sc3nc(-c4cccs4)nn3c2=O)c1`, the EC50 in [1] was > 300 µM (not active); in [2], > 300 µM (inconclusive); in assay [10], 6.32 µM (active).
With `CCOC(=O)N1CCC(c2cc(=O)n(-c3ccccc3)[nH]2)CC1`, in assay [6], the AC50 was 3.66 µM (active). Also, in assay [7], the EC50 was 2.51 µM (active).
For `CCO/C(C)=N/n1c2nc3ccccc3nc2c2c(=O)n(C3CCCC3)c(C)nc21`, the EC50 in assay [1] and in assay [2] was > 300 µM (not active) each time.
